System: housefly
Experiment: Insecticidal activity against housefly (diet incorporation test)
Assay type: in vivo
Conditions: Musca domestica, 72 h, 3rd instar larvae, read-out: Mortality of housefly (%)
Procedure: Diet Incorporation Tests: the test compound was dissolved with 90% acetone to obtain the mother liquor after weigh accurately with an electronic balance. The required concentration solution was got by diluting to the mother liquor with a certain concentration milk powder solution according to the designed doses in the experiment. Then, the diluted concentration solution was evenly put into the petri dishes with diameter of 6 cm inside which filter paper was placed by using a transferring-liquid gun ([…], solution each petri dish). Finally the 3rd instars of larvae were put into petri dishes with 10 each petri dish, and 3 replicates were set for each treatment. Then the insects were maintained in observation room (25° C., 60˜70% R.H.). Scores were conducted and mortalities were calculated after 72 h.

Compound FC(F)(F)c1ccc(Oc2ccc(OCCCOc3c(Cl)cc(OCC=C(Cl)Cl)cc3Cl)cc2)nc1 [Compound 1] has a mortality at 10 µg/mL (10 mg/L) of 66.7% and a mortality at 20 µg/mL (20 mg/L) of 100%.
